Data set [1] relates to IMR-32 neuroblastoma cell line. The data set can be described thus: Inhibition of erastin-induced ferroptosis in IMR-32 cells (Sytox Green cell death readout). Type of data set: cell-based. The settings on record: Homo sapiens; inhibiting ferroptosis in the IMR-32 neuroblastoma cell line stimulated with 10 μM erastin; compounds 1 nM to 1 μM, triplicate. On the procedure:
In the present disclosure, the potency of a compound inhibiting (or reducing) ferroptosis and/or oxytosis are determined in in vitro or in vivo assays. Typically in vitro assays are used to measure the potency of a candidate compound. Examples of suitable in vitro assays are cellular assays. One non-limiting example of an assay involves the use of the IMR-32 neuroblastoma cell line. The latter is stimulated to enter into ferroptosis upon stimulation with 10 μM erastin, a documented ferroptosis inducer (see, for example, Dixon et al. (2012) Cell 149, 1060-1072, and ferroptosis inhibitors are evaluated for the prevention of erastin-induced ferroptosis. Yet another assay is based the glutamate-induced cell death in the hippocampal cell line HT22 and ferroptosis/oxytosis inhibitors are evaluated for the prevention of cell death (see N. Henke et al. (2013) Cell Death and Disease 4, e470). Still another assay is based on the sorafinib-induced cell death (described to be iron dependent cell death) in hepatocellular carcinoma cells and ferroptosis inhibitors are evaluated for the prevention of cell death (see C. Louandre et al. (2013) Int. J. Cancer 133, 1732). The calculated potency of a compound inhibiting ferroptosis and/or oxytosis is typically depicted as an IC50 value. Examples of suitable in vivo assays are typically pre-clinical disease models of, for example, mice for the diseases benefiting the application of ferroptosis and/or oxytosis inhibitors, as described herein. One non-limiting example of an in vivo assay is based on inducing liver damage in mice by administering the herbicide diquat dibromide monohydrate and ferroptosis inhibitors are evaluated based on reduced levels of liver transaminases in serum (see Q. Ran et al. (2004) J. Biol. Chem. 279, 53, 55137).
The IC50 values for the individual compounds of the disclosure were determined in the neuroblastoma, IMR-32 cell line. In brief, IMR-32 cells were subjected to 10 μM erastin, the latter compound is known to induce ferroptosis. A concentration gradient (ranging from 1 nM to 1 μM) of the compounds was applied to the cells. These experiments were performed in a 96-well format (in triplicate), and cell death was analyzed in a fluorescent plate reader by use of a fluorescent cell death dye (1.5 μM Sytox Green). The IC50 values depicted in Table 1 are the concentration values for the individual compounds which are able to overcome ferroptosis.

Data set [2] can be described thus: Kinetic solubility (turbidity). Type of data set: physicochemical. The settings on record: kinetic solubility by turbidity, test range 3.125 μM to 200 μM, 10 mM PBS pH 7.4. On the procedure: (§1) Unless otherwise stated, laboratory reagent grade solvents were used. Reagents were obtained from Sigma-Aldrich, Acros Organics or Fluorochem and were used without further purification. Characterization of all compounds was done with ^1H and ^13C NMR and mass spectrometry. ^1H and ^13C NMR spectra were recorded on a 400 MHz Bruker Avance III Nanobay spectrometer with Ultrashield and analyzed by use of MestReNova analytical chemistry software. Chemical shifts are in ppm, and coupling constants are in hertz (Hz). ES mass spectra were obtained from an Esquire 3000 plus ion trap mass spectrometer from Bruker Daltonics. Purities were determined with two diverse HPLC systems based either on mass determination or on UV detection. A Waters acquity UPLC system coupled to a Waters TQD ESI mass spectrometer or a Waters SQD ESI mass spectrometer was used both in combination with a Waters TUV detector. Water (A) and CH3CN (B) were used as eluents. LC-MS spectra were recorded on an Agilent 1100 series HPLC system using a Alltech Prevail C18 column (2.1 mm×50 mm, 3 μm) coupled with an Esquire 3000 plus as MS detector, and a “method A” 5-100% B, 20 min gradient was used with a flow rate of 0.2 mL/min. Formic acid, 0.1%, was added to solvents A and B. Waters Acquity UPLC BEH C18 1.7 μm, 2.1 mm×50 mm column was used. Solvent A consisted of water with 0.1% formic acid. Solvent B consisted of acetonitrile with 0.1% formic acid. Method I involved the following: 0.15 min 95% A, 5% B, then in 1.85 min from 95% A, 5% B to 95% B, 5% A, then 0.25 min (0.350 mL/min), 95% B, 5% A. The wavelength for UV detection was 254 nm. Method II involved the following: flow 0.4 mL/min, 0.25 min 95% A, 5% B, then in 4.75 min to 95% B, 5% A, then 0.25 min 95% B, 5% A, followed by 0.75 min 95% A, 5% B. The wavelength for UV detection was 214 nm. Where necessary, flash purification was performed on a Biotage ISOLERA One flash system equipped with an internal variable dual wavelength diode array detector (200-400 nm). For normal phase purifications SNAP cartridges (10-340 g, flow rate of 10-100 mL/min) were used, and reversed phase purifications were done making use of KP-C18 containing cartridges. Dry sample loading was done by self-packing samplet cartridges using silica and Celite 545, respectively, for normal and reversed phase purifications. Gradients used varied for each purification. Mouse and rat plasma came from Innovative Research. The turbidity in the kinetic solubility experiments was measured using the UV/vis spectrophotometer Synergy MX, Biotek with Gen5.

Data set [3] is described as follows: Plasma stability, murine plasma. The data set is classed as in vitro ADME, mouse. Conditions: for recovery at 6 h: mouse. The protocol: as §1
The nature of data set [4]: Microsomal stability, human microsomes. The protocol:
(§2) In a next step a subset of compounds was subjected to ADME analysis. Thereto the metabolism by murine and human microsomes of representative compounds of the disclosure was measured. The compound ferrostatin-1 (Fer-1, described in S. J. Dixon et al. (2012) Cell 149, 1060-1072), originally described to inhibit ferroptosis, was used a control. In addition, the plasma stability in murine and human plasma was measured. The percentage of remaining compounds was measured by LC-MS.

Data set [5] in a line: Plasma stability, human plasma. The data set is classed as in vitro ADME. The settings on record: for recovery at 6 h: human.
Experimental: Thereto the metabolism by murine and human microsomes of representative compounds of the disclosure was measured. […] In addition, the plasma stability in murine and human plasma was measured. The percentage of remaining compounds was measured by LC-MS.
Data set [6] in a line: Microsomal stability, murine microsomes. The protocol: as §2
[7] abbreviates: aqueous buffer, kinetic from dmso stock.
Setting [8] is: human microsomes (CYP450 and other NADPH-dependent enzymes).
Setting [9] is: mouse microsomes (CYP450 and other NADPH-dependent enzymes).

Structures are written as SMILES.

Molecule `O=S(=O)(NCCO)c1ccc(NC2CCCCC2)c(NCc2ccccc2)c1` [Compound 58, 3-(benzylamino)-4-(cyclohexylamino)-N-(2-hydroxyethyl)benzenesulfonamide] displayed an IC50 in data set [1] of 14 nM. For the same molecule, the solubility in data set [2] (setting [7]) lay within 100 to 200 µM.

Turning to `CN1CCN(S(=O)(=O)c2ccc(NC3CCCCC3)c(N)c2)CC1` [Compound 31, N1-cyclohexyl-4-((4-methylpiperazin-1-yl)sulfonyl)benzene-1,2-diamine], the concentration for half-maximal inhibition (IC50) in data set [1] stood at 206 nM. Besides, the solubility in data set [2] (setting [7]) was above 200 µM.

In data set [1], `CN1CCN(S(=O)(=O)c2ccc(NC3CCCCC3)c(NCc3ccccc3)c2)CC1` [Compound 56, N2-benzyl-N1-cyclohexyl-4-((4-methylpiperazin-1-yl)sulfonyl)benzene-1,2-diamine] came in with an IC50 of 33 nM. For the same molecule, the solubility in data set [2] (setting [7]) lay in the range of 25 to 50 µM.

`CCNS(=O)(=O)c1ccc(NC2C3CC4CC(C3)CC2C4)c(NCc2ccncc2)c1` (centres unmarked) [Compound 45, 4-(adamantan-2-ylamino)-N-ethyl-3-((pyridin-4-ylmethyl)amino)benzenesulfonamide] registered a 50% inhibitory concentration (IC50) in data set [1] of 3.9 nM. The recovery at 6 h in data set [3] and in data set [5] was 100% each time. Moreover, the “Microsomal stability Half-life (t1/2) (min) Human” value in data set [4] (setting [8]) was found to be 64 ± 10 min. Besides, the solubility in data set [2] (setting [7]) lay in the range of 12.5 to 25 µM. The “Microsomal stability Half-life (t1/2) (min) Mouse” value in data set [6] (setting [9]) was 26 ± 5 min.

In data set [1], `CCNS(=O)(=O)c1ccc(NC2CCCCC2)c(NCc2cncnc2)c1` [Compound 39, 4-(cyclohexylamino)-N-ethyl-3-((pyrimidin-5-ylmethyl)amino)benzenesulfonamide] showed an IC50 of 187 nM. For the same molecule, the solubility in data set [2] (setting [7]) fell in the range of 100 to 200 µM.

For the molecule `CCNS(=O)(=O)c1ccc(NC2CCCCC2)c(NCc2ccccc2)c1` [Compound 37, 3-(benzylamino)-4-(cyclohexylamino)-N-ethylbenzenesulfonamide], half-maximal inhibition in data set [1] (IC50) required 4 nM. For the same molecule, the recovery at 6 h in data set [3] stood at 98.6%; in data set [5] it was 100%. Further, the “Microsomal stability Half-life (t1/2) (min) Human” value in data set [4] (human, microsomes) is listed as 88 ± 16 min. Besides, the solubility in data set [2] (setting [7]) was in the range of 12.5 to 25 µM. Further, in data set [6] (mouse, microsomes), the “Microsomal stability Half-life (t1/2) (min) Mouse” value came to 187 ± 41 min.

With `Nc1cc(S(=O)(=O)N2CCOCC2)ccc1NC1CCCCC1` [Compound 32, N1-cyclohexyl-4-(morpholinosulfonyl)benzene-1,2-diamine], the IC50 in data set [1] came out at 208 nM. Further, the solubility in data set [2] (setting [7]) is above 200 µM.

As to `CCNS(=O)(=O)c1ccc(NC2C3CC4CC(C3)CC2C4)c(NCc2ccccc2)c1` (centres unmarked) [Compound 44, 4-(adamantan-2-ylamino)-3-(benzylamino)-N-ethylbenzenesulfonamide], it took 3.5 nM to reach half-maximal inhibition in data set [1] (IC50). Further, the recovery at 6 h came out at 99.4% in data set [3] and 100% in data set [5]. Also, the “Microsomal stability Half-life (t1/2) (min) Human” value in data set [4] (human, microsomes) is recorded as 36 ± 11 min. Besides, the solubility in data set [2] (setting [7]) was 12.5 to 25 µM. Moreover, in data set [6] (mouse, microsomes), the “Microsomal stability Half-life (t1/2) (min) Mouse” value was determined as 31 ± 6 min.

For the molecule `CCNS(=O)(=O)c1ccc(NC2CCCCC2)c(N)c1` [Compound 22, 3-amino-4-(cyclohexylamino)-N-ethylbenzenesulfonamide], the midpoint of inhibition in data set [1], the IC50, lay at 67 nM. Besides, the recovery at 6 h in data set [3] worked out at 86.2%; in data set [5], 81.9%. In addition, the “Microsomal stability Half-life (t1/2) (min) Human” value in data set [4] (human, microsomes) was 37 ± 3 min. Moreover, the solubility in data set [2] (setting [7]) lay within 12.5 to 25 µM. The “Microsomal stability Half-life (t1/2) (min) Mouse” value in data set [6] (mouse, microsomes) is given as 31 ± 5 min.

`O=S(=O)(c1ccc(NC2CCCCC2)c(NCc2ccccc2)c1)N1CCOCC1` [Compound 57, N2-benzyl-N1-cyclohexyl-4-(morpholinosulfonyl)benzene-1,2-diamine] registered an IC50 in data set [1] of 30 nM. Further, in data set [2] (setting [7]), the solubility lay in the range of 25 to 50 µM.

For `CCOC(=O)c1ccc(NC2CCCCC2)c(N)c1` [Fer-1, ferrostatin-1, reference compound], the “Plasma stability % recovery after 6 h Mouse” value in data set [3] (mouse plasma, 6 h, percentage of remaining parent compound, LC-MS) came out at 0%. The “Microsomal stability Half-life (t1/2) (min) Human” value in data set [4] (setting [8]) stood at 6.9 ± 0.2 min. Besides, in data set [5] (human plasma, 6 h, percentage of remaining parent compound, LC-MS), the “Plasma stability % recovery after 6 h Human” value came out at 100%. Further, the solubility in data set [2] is above 200 µM. For the same molecule, the “Microsomal stability Half-life (t1/2) (min) Mouse” value in data set [6] (setting [9]) was 1.9 ± 0.6 min.

The IC50 is the point on the concentration scale where inhibition reaches its midpoint. Read a low IC50 as greater potency in that assay. The term solubility denotes the concentration that dissolves in the medium under given conditions.

The values above are taken from patent US9862678B2, “3,4-diaminobenzenesulfonamide derivatives for inhibiting cell death” (VIB VZW, priority 2014, dated 2018).
